19 compounds from patent US12624018B1, “Inhibitors of RIPK2 and medical uses thereof” (Odyssey Therapeutics, Inc., priority 2022, dated 2026) can be followed below.

The test system of one assay is human NOD2 signaling. The experiment in a line: Inhibition of human NOD2 signaling in HEK-Blue-hNOD2 cells (L18-MDP stimulated, SEAP reporter). Particulars: NOD2 ligand stimulation, SEAP reporter, read-out: hNOD2 IC50. The class given is cell-based. The method, then:
Materials: Human NOD32-expressing 1TEK293 cells, HEK-Blue™-hNOD2 cells, were developed by Invivogen (catalogue number: hkb-hnod2) using co-transfection of the human NOD2 gene and an optimized secreted embryonic alkaline phosphatase (SEAP) reporter gene into HTEK293 cells. The cell maintenance medium consisted of DMEM (Giboc, 21063-029), heat inactivated FBS, penicillin (100 U/mL), streptomycin (100 μg/mL), Normocin (100 μg/mL), Blasticidin (30 μg/mL), and Zeocin (100 μg/mL). HEK-Blue™-hNOD2 cells were transferred to assay medium consisting of DMEM (Giboc, 21063-029), heat inactivated FBS, penicillin (100 U/mL) and streptomycin (100 μg/mL) prior to stimulation. Stimulation with a NOD2 ligand, L18-MDP (Invivogen, catalogue number: tlrl-lmdp) activated NF-κB and AP-1 which induced the production of SEAP. Levels of SEAP were determined with HEK-Blue™ Detection (referred to as QUANTI-Blue solution), a cell culture medium that allows for real-time detection of SEAP. QUANTI-Blue solution was prepared by adding 1 mL of QB reagent and 1 mL of QB buffer to 98 mL of sterile H2O. Test compounds were prepared into a 10 mM DMSO solution and were serially diluted into 10 points using a 3-fold dilution in a 384 well plate using a TECAN EVO200.
Method: In a 384 well plate, 40 nL of test compound was dispensed using Echo550. HEK-Blue™-hNOD2 cells (Invivogen) were prepared into a cell suspension and 40 μL of the cell suspension (12500 cells per well) was dispensed into the 384 well plate. To activate NOD2 signaling, 40 nL of L18-MDP (final concentration of 0.5 ng/mL) was added and the plate was incubated at 37° C. in a CO2 incubator for 24 hours. After the 24-hour incubation, 5 μL of the induced HEK-Blue hNOD2 cell supernatant was transferred to a new 384-well plate, centrifuged, and 45 μL of QUANTI-Blue solution was added per well and incubated for 3 hours at 37° C. SEAP levels were measured using an Ensight at 620 nm. Percent inhibition of NOD2 signaling was determined using the following equation: (high control−test compound signal)/(High control−low control)×100. The reaction high control was determined using wells with DMSO, cells, L18-MDP, and QUANTI-Blue solution. The reaction low control was determined using wells with DMSO, cells, and QUANTI-Blue solution. 4-parametric curve fit was used to determine the test compound concentration that results in 50% reduction of L18-MDP-driven human NOD2 signaling.
Using the assay described above, inhibition of hNOD2 signaling was also evaluated for GSK 2983559 (Haile at al., J. Med. Chem. 2019, 62, 14, 6482-6494), a known RIPK2 kinase inhibitor: […]

For a further assay, the target named is T1, RIPK2 enzyme (Homo sapiens, UniProt O43353).
T1 construct: purchased Carna 09-128
T1 sequence (O43353 1-299 limits assumed): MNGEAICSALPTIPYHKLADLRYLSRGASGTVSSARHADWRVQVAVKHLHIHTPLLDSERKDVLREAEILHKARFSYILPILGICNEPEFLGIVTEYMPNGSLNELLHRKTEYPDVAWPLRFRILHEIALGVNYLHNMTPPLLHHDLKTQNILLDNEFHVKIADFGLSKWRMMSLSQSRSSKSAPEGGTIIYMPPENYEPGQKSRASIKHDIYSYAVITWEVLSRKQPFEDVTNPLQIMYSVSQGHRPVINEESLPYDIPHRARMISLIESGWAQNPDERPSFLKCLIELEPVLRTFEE
The assay can be described thus: RIPK2 inhibition (ADP-Glo Kinase Assay). The class given is biochemical. As to conditions: RIPK2 5 nM, ATP 150 μM, MBP substrate, read-out: RIPK2 IC50. The gist of the method: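 Swine MBP substrate; compound and 5 nM RIPK2 first mixed for 30 min at room temperature; buffer pH 7.5 HEPES 50 mM with 10 mM MgCl2, 2 mM DTT, 1 mM EGTA, Brij-35, BSA.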
A general note: ADP-Glo first removes unused ATP, then detects ADP through luciferase.

The mark [1] stands for this setting: Homo sapiens, HEK-Blue hNOD2, HEK-Blue-hNOD2 cells.

Molecules are shown by their SMILES. Read-outs that look alike come from different tables or passages of the source. Where only a bound is given, the exact number is not on record here.

Consider `Cc1cc(CC(=O)Nc2cnn(C(C)(C)C)c2)ccc1Oc1ccnc2cc(F)c(S(=N)(=O)C3CC3)cc12` (single isomer, unassigned) [Compound 554, N-(1-(tert-butyl)-1H-pyrazol-4-yl)-2-(4-((6-(cyclopropane-sulfonimidoyl)-7-fluoroquinolin-4-yl)oxy)-3-methylphenyl) acetamide], for which the concentration for half-maximal inhibition (IC50) (in general, the point on the concentration scale where inhibition reaches its midpoint) in the assay with human NOD2 signaling (HEK-Blue-hNOD2 cells) was 4.9 nM; on RIPK2 enzyme, less than 2.5 nM.
Turning to `CCS(=N)(=O)c1ccc2nccc(Oc3ccc(CC(=O)Nc4cnn(C56CC(C5)C6)c4)cc3C)c2c1` (single isomer, unassigned) [Compound 593, N-(1-(bicyclo[1.1.1]pentan-1-yl)-1H-pyrazol-4-yl)-2-(4-((6-(ethylsulfonimidoyl)quinolin-4-yl)oxy)-3-methylphenyl) acetamide], the IC50 is 6.7 nM in the assay on human NOD2 signaling (setting [1]) and less than 2.5 nM on RIPK2 enzyme.
With `Cc1cc(CC(=O)Nc2cnn(C(C)C(F)(F)F)c2)ccc1Oc1ccnc2ccc(S(C)(=O)=O)cc12` (single isomer, unassigned) [Compound 594, 2-(3-methyl-4-((6-(methylsulfonyl)quinolin-4-yl)oxy)phenyl)-N-(1-(1,1,1-trifluoropropan-2-yl)-1H-pyrazol-4-yl)acetamide], the IC50 was 27 nM in the assay with human NOD2 signaling (setting [1]) and less than 2.5 nM on RIPK2 enzyme.
Regarding `Cc1cc(CC(=O)Nc2cnn(C(C)C(F)(F)F)c2)ccc1Oc1ccnc2ccc(S(C)(=O)=O)cc12` (single isomer, unassigned) [Compound 595, 2-(3-methyl-4-((6-(methylsulfonyl)quinolin-4-yl)oxy)phenyl)-N-(1-(1,1,1-trifluoropropan-2-yl)-1H-pyrazol-4-yl)acetamide], the half-inhibitory concentration (IC50) with human NOD2 signaling (HEK-Blue-hNOD2 cells) was 19.3 nM; on RIPK2 enzyme, less than 2.5 nM.
For `Cc1cc(CC(=O)Nc2cnn(C(C)(C)C)c2)ccc1Oc1ccnc2ccc(C(O)C(N)=O)cc12` (single isomer, unassigned) [Compound 609, 2-(4-((6-(2-amino-1-hydroxy-2-oxoethyl)quinolin-4-yl)oxy)-3-methylphenyl)-N-(1-(tert-butyl)-1H-pyrazol-4-yl)acetamide], the values for the IC50 with human NOD2 signaling (setting [1]) and at RIPK2 enzyme were 46.3 nM and less than 2.5 nM, respectively.
As to `Cc1cc(CC(=O)Nc2cnn(C(C)(C)C)c2)ccc1Oc1ccnc2ccc(C(C)(O)C(N)=O)cc12` (single isomer, unassigned) [Compound 615, 2-(4-(4-(2-((1-(tert-butyl)-1H-pyrazol-4-yl)amino)-2-oxoethyl)-2-methylphenoxy)quinolin-6-yl)-2-hydroxypropanamide], the IC50 in the assay with human NOD2 signaling (setting [1]) worked out at 17.5 nM; at RIPK2 enzyme it was 2.8 nM.
Turning to `Cc1cc(CC(=O)Nc2cnn(C(C)(C)C)c2)ccc1Oc1ccnc2ccc(C(C)(O)C(N)=O)cc12` (single isomer, unassigned) [Compound 616, 2-(4-(4-(2-((1-(tert-butyl)-1H-pyrazol-4-yl)amino)-2-oxoethyl)-2-methylphenoxy)quinolin-6-yl)-2-hydroxypropanamide], the values for the concentration for half-maximal inhibition (IC50) in the assay with human NOD2 signaling (HEK-Blue-hNOD2 cells) and at RIPK2 enzyme were 22.4 nM and less than 2.5 nM, respectively.
With `Cc1cc(CC(=O)Nc2cc(C(C)(C)C)[nH]n2)ccc1Oc1ccnc2cc(F)c(S(C)(=N)=O)cc12` (single isomer, unassigned) [Compound 620, N-(5-(tert-butyl)-1H-pyrazol-3-yl)-2-(4-((7-fluoro-6-(S-methylsulfonimidoyl)quinolin-4-yl)oxy)-3-methylphenyl) acetamide], the IC50 is 6.7 nM with human NOD2 signaling (setting [1]) and less than 2.5 nM on RIPK2 enzyme.
On to `Cc1cc(CC(=O)Nc2cc(C(C)(C)C)[nH]n2)ccc1Oc1ccnc2cc(F)c(S(C)(=N)=O)cc12` (single isomer, unassigned) [Compound 621, N-(5-(tert-butyl)-1H-pyrazol-3-yl)-2-(4-((7-fluoro-6-(S-methylsulfonimidoyl)quinolin-4-yl)oxy)-3-methylphenyl) acetamide], for which the IC50 with human NOD2 signaling (HEK-Blue-hNOD2 cells) is 11.7 nM; at RIPK2 enzyme, less than 2.5 nM.
Consider `CC(C)(C)n1cc(NC(=O)Cc2ccc(Oc3ccnc4ccc(C(N)=O)cc34)c(C(F)F)c2)cn1` [Compound 462, 4-(4-(2-((1-(tert-butyl)-1H-pyrazol-4-yl)amino)-2-oxoethyl)-2-(difluoromethyl)phenoxy) quinoline-6-carboxamide], for which the concentration for half-maximal inhibition (IC50) with human NOD2 signaling (setting [1]) was 7.5 nM; on RIPK2 enzyme, less than 2.5 nM.
As to `CNC(=O)c1ccc2nccc(Oc3ccc(CC(=O)Nc4cnn(C(C)(C)C)c4)cc3C(F)F)c2c1` [Compound 463, 4-(4-(2-((1-(tert-butyl)-1H-pyrazol-4-yl)amino)-2-oxoethyl)-2-(difluoromethyl)phenoxy)-N-methylquinoline-6-carboxamide], the IC50 with human NOD2 signaling (setting [1]) was 4 nM; at RIPK2 enzyme it was less than 2.5 nM.
For the compound `Cc1cc(CC(=O)Nc2cnn(C(C)(C)C)c2)c(F)cc1Oc1ccnc2ccc(-c3ncccc3C)cc12` [Compound 475, N-(1-(tert-butyl)-1H-pyrazol-4-yl)-2-(2-fluoro-5-methyl-4-((6-(3-methylpyridin-2-yl)quinolin-4-yl)oxy)phenyl)acetamide], the 50% inhibitory concentration (IC50) with human NOD2 signaling (setting [1]) is 54 nM; at RIPK2 enzyme it was 4.2 nM.
With `Cc1cc(CC(=O)Nc2cnn(C(C)(C)C)c2)c(F)cc1Oc1ccnc2ccc(-c3c[nH]nc3O)cc12` [Compound 478, N-(1-(tert-butyl)-1H-pyrazol-4-yl)-2-(2-fluoro-4-((6-(3-hydroxy-1H-pyrazol-4-yl)quinolin-4-yl)oxy)-5-methylphenyl)acetamide], the figures for the concentration for half-maximal inhibition (IC50) in the assay on human NOD2 signaling (setting [1]) and on RIPK2 enzyme were 26 nM and less than 2.5 nM, respectively.
As for `COc1n[nH]cc1-c1ccc2nccc(Oc3cc(F)c(CC(=O)Nc4cnn(C(C)(C)C)c4)cc3C)c2c1` [Compound 480, N-(1-(tert-butyl)-1H-pyrazol-4-yl)-2-(2-fluoro-4-((6-(3-methoxy-1H-pyrazol-4-yl)quinolin-4-yl)oxy)-5-methylphenyl)acetamide], the half-maximal inhibitory concentration (IC50) was 0.8 nM with human NOD2 signaling (setting [1]) and less than 2.5 nM on RIPK2 enzyme.
For the compound `CCc1nc(-c2ccc3nccc(Oc4cc(F)c(CC(=O)Nc5cnn(C(C)(C)C)c5)cc4C)c3c2)n[nH]1` [Compound 483, N-(1-(tert-butyl)-1H-pyrazol-4-yl)-2-(4-((6-(5-ethyl-1H-1,2,4-triazol-3-yl)quinolin-4-yl)oxy)-2-fluoro-5-methylphenyl)acetamide], the results for the IC50 in the assay on human NOD2 signaling (setting [1]) and at RIPK2 enzyme were 0.6 nM and less than 2.5 nM, respectively.
Consider `Cc1cc(CC(=O)Nc2cnn(C(C)(C)C)c2)c(F)cc1Oc1ccnc2ccc(-c3nc[nH]n3)cc12` [Compound 484, 2-(4-((6-(1H-1,2,4-triazol-3-yl)quinolin-4-yl)oxy)-2-fluoro-5-methylphenyl)-N-(1-(tert-butyl)-1H-pyrazol-4-yl)acetamide], for which the values for the half-inhibitory concentration (IC50) in the assay with human NOD2 signaling (setting [1]) and on RIPK2 enzyme were 0.4 nM and less than 2.5 nM, respectively.
On to `[2H]C([2H])([2H])c1cc(CC(=O)Nc2cnn(C(C)(C)C)c2)ccc1Oc1ccnc2ccc(S(=O)(=O)C([2H])([2H])[2H])cc12` [Compound 485, N-(1-(tert-butyl)-1H-pyrazol-4-yl)-2-(3-(methyl-d3)-4-((6-((methyl-d3)sulfonyl)quinolin-4-yl)oxy)phenyl)acetamide], for which the IC50 in the assay with human NOD2 signaling (setting [1]) was 0.3 nM; at RIPK2 enzyme it was less than 2.5 nM.
For the compound `CSc1ccc2nccc(Oc3ccc(CC(=O)Nc4cnn(C(C)(C)C)c4)cc3C)c2c1` [Compound 486, N-(1-(tert-butyl)-1H-pyrazol-4-yl)-2-(3-methyl-4-((6-(methylthio)quinolin-4-yl)oxy)phenyl)acetamide], the values for the half-maximal inhibitory concentration (IC50) in the assay with human NOD2 signaling (setting [1]) and on RIPK2 enzyme were 1.8 nM and less than 2.5 nM, respectively.
`[2H]C([2H])([2H])NC(=O)c1ccc2nccc(Oc3ccc(CC(=O)Nc4cnn(C(C)(C)C)c4)cc3C)c2c1` [Compound 491, 4-(4-(2-((1-(tert-butyl)-1H-pyrazol-4-yl)amino)-2-oxoethyl)-2-methylphenoxy)-N-(methyl-d3)quinoline-6-carboxamide]: the half-inhibitory concentration (IC50) with human NOD2 signaling (setting [1]) is 0.1 nM; at RIPK2 enzyme, less than 2.5 nM.
